Activity data for two molecules are collected here from ChEMBL document CHEMBL1153094, “Spectroscopic and biological studies of a novel synthetic chlorin derivative with prospects for use in PDT” (Bioorg Med Chem, 2009).

Molecules are shown by their SMILES. Active and inactive are the calls of the source. The rule behind the calls is not given here.

The nature of series [1]: Cytotoxicity against mouse LLC cells assessed as survival fraction at 0.1 to 1.5 uM after 4 hrs by MTS reduction assay under dark condition. The class given is cell-based. The settings on record: lewis lung carcinoma. (In general: Formazan colour is commonly taken as a measure of viable cells.)
The nature of series [2]: Cytotoxicity against mouse LLC cells assessed as survival fraction at 0.1 to 1.5 uM after 12 hrs by MTS reduction assay under dark condition. The class given is cell-based. The settings on record: lewis lung carcinoma.
Series [3] relates to Lewis lung carcinoma cell line. Put plainly: Antiproliferative activity against mouse LLC cells assessed as survival fraction at 0.5 uM after 4 hrs pretreated with 15 J/cm2 red light-irradiation by MTS reduction assay. The class given is functional.
Series [4] concerns Lewis lung carcinoma cell line. Put plainly: Antiproliferative activity against mouse LLC cells assessed as survival fraction at 0.5 uM dissolved in DMSO after 4 hrs pretreated with 15 J/cm2 red light-irradiation by MTS reduction assay. The class given is functional.
Series [5] deals with Lewis lung carcinoma cell line. Put plainly: Antiproliferative activity against mouse LLC cells assessed as survival fraction at 0.5 uM dissolved in DMSO after 12 hrs pretreated with 15 J/cm2 red light-irradiation by MTS reduction assay. The format is functional.
The test system of series [6] is Lewis lung carcinoma cell line. Put plainly: Antiproliferative activity against mouse LLC cells assessed as survival fraction at 0.5 uM in liposomal delivery system after 4 hrs pretreated with 15 J/cm2 red light-irradiation by MTS reduction assay. The class given is functional.
For series [7], the system named is Lewis lung carcinoma cell line. Put plainly: Antiproliferative activity against mouse LLC cells assessed as survival fraction at 0.5 uM in liposomal delivery system after 12 hrs pretreated with 15 J/cm2 red light-irradiation by MTS reduction assay. The class given is functional.
Series [8] is described as follows: Cytotoxicity against mouse LLC cells assessed as change in cell morphology at 2 uM after 12 hrs by fluorescence microscopy under dark condition. The following applies: lewis lung carcinoma. The class given is cell-based.
The subject of series [9] is Lewis lung carcinoma cell line. The series can be described thus: Antiproliferative activity against mouse LLC cells assessed as F-actin construction damage at 2 uM in liposomal delivery system after 12 hrs pretreated with 15 J/cm2 red light-irradiation by fluorescence microscopy. The class given is functional, cell-based.
Series [10] relates to Lewis lung carcinoma cell line. Put plainly: Antiproliferative activity against mouse LLC cells assessed as nuclear damage at 2 uM in liposomal delivery system after 12 hrs pretreated with 15 J/cm2 red light-irradiation by fluorescence microscopy. The class given is functional, cell-based.
In series [11] the test system is Lewis lung carcinoma cell line. The series can be described thus: Antiproliferative activity against mouse LLC cells assessed as DNA […] at 2 uM in liposomal delivery system after 12 hrs pretreated with 15 J/cm2 red light-irradiation by fluorescence microscopy. The format is functional, cell-based.
Series [12] deals with Lewis lung carcinoma cell line. The series can be described thus: Antiproliferative activity against mouse LLC cells assessed as survival fraction at 5 uM after 24 hrs pretreated with 15 J/cm2 red light-irradiation by MTS reduction assay. The format is functional.

Turning to `CCCCCCCC1c2cc3[nH]c(cc4nc(cc5[nH]c(cc(n2)[C@]1(C)CC(=O)N(C)C)c(C)c5CCC(=O)O)C(CCC(=O)O)=C4C)cc3C` (mixture of isomers), the Activity result in series [1] is reported as “Non-toxic”; in series [2] it was “Non-toxic”; in series [3], 22.3%; in series [4], 70.6%; in series [5] it was 74.4%; in series [6], 20.3%. In addition, the Activity was 34.8% in series [7] and “Toxic” in [8]. Besides, the result in series [9], in series [10] and in series [11] was Active.
Regarding `C=CC1=C(C)c2cc3[nH]c(cc4nc(cc5[nH]c(cc1n2)c(C)c5CCC(=O)[O-])C(CCC(=O)[O-])=C4C)c(C)c3C=C.[Na+].[Na+]` [PROTOPORPHYRIN DISODIUM], the Activity in series [12] is recorded as 60.7%.
